Measured values from article PMC11576293, “New series of 4,6-diaryl pyrimidines: facile synthesis and antiproliferative activity as dual EGFR/VEGFR-2 inhibitors” (Frontiers in Chemistry, 2024).

How the values were obtained:
Experiment in all cases: NCI-60 single-dose screen
Type in all cases: cell-based
786-0 = details: Homo sapiens, single dose 10 µM, '-' = no inhibition, read-out: % Growth Inhibition
Outline: (§1)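 NCI Developmental Therapeutics Program screen across 60 human cancer cell lines from nine tumor types; compounds tested at a single dose of 10 μM.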

A498 = details: Homo sapiens, single dose 10 µM, '-' = no inhibition, read-out: % Growth Inhibition
Outline: as §1

A549/ATCC = details: Homo sapiens, single dose 10 µM, '-' = no inhibition, read-out: % Growth Inhibition
Outline: as §1

ACHN 1 = details: Homo sapiens, single dose 10 µM, '-' = no inhibition, read-out: % Growth Inhibition
Outline: as §1

BT-549 = details: Homo sapiens, single dose 10 µM, '-' = no inhibition, read-out: % Growth Inhibition
Outline: as §1

CAKI-1 = details: Homo sapiens, single dose 10 µM, '-' = no inhibition, read-out: % Growth Inhibition
Outline: as §1

COLO 205 = details: Homo sapiens, single dose 10 µM, '-' = no inhibition, read-out: % Growth Inhibition
Outline: as §1

DU-145 = details: Homo sapiens, single dose 10 µM, '-' = no inhibition, read-out: % Growth Inhibition
Outline: as §1

EKVX = details: Homo sapiens, single dose 10 µM, '-' = no inhibition, read-out: % Growth Inhibition
Outline: as §1

HCT-15 = details: Homo sapiens, single dose 10 µM, '-' = no inhibition, read-out: % Growth Inhibition
Outline: as §1

HL-60(TB) = details: Homo sapiens, single dose 10 µM, '-' = no inhibition, read-out: % Growth Inhibition
HOP-62 = details: Homo sapiens, single dose 10 µM, '-' = no inhibition, read-out: % Growth Inhibition
Outline: as §1

HOP-92 = details: Homo sapiens, single dose 10 µM, '-' = no inhibition, read-out: % Growth Inhibition
Outline: as §1

HT29 = details: Homo sapiens, HT-29, single dose 10 µM, '-' = no inhibition, read-out: % Growth Inhibition
Outline: as §1

IGROV1 = details: Homo sapiens, IGROV-1, single dose 10 µM, '-' = no inhibition, read-out: % Growth Inhibition
Outline: as §1

KM12 = details: Homo sapiens, single dose 10 µM, '-' = no inhibition, read-out: % Growth Inhibition
Outline: as §1

LOX IMVI = details: Homo sapiens, single dose 10 µM, '-' = no inhibition, read-out: % Growth Inhibition
Outline: as §1

M14 = details: Homo sapiens, single dose 10 µM, '-' = no inhibition, read-out: % Growth Inhibition
Outline: as §1

MALME-3M = details: Homo sapiens, single dose 10 µM, '-' = no inhibition, read-out: % Growth Inhibition
Outline: as §1

MDA-MB-468 = details: Homo sapiens, single dose 10 µM, '-' = no inhibition, read-out: % Growth Inhibition
Outline: as §1

MDA-MB231/ATCC = details: Homo sapiens, MDA-MB-231, single dose 10 µM, '-' = no inhibition, read-out: % Growth Inhibition
Outline: as §1

MOLT-4 = details: Homo sapiens, single dose 10 µM, '-' = no inhibition, read-out: % Growth Inhibition
Outline: as §1

NCI-H23 = details: Homo sapiens, single dose 10 µM, '-' = no inhibition, read-out: % Growth Inhibition
Outline: as §1

NCI-H322M = details: Homo sapiens, single dose 10 µM, '-' = no inhibition, read-out: % Growth Inhibition
Outline: as §1

NCI-H460 = details: Homo sapiens, single dose 10 µM, '-' = no inhibition, read-out: % Growth Inhibition
Outline: as §1

NCI-H522 = details: Homo sapiens, single dose 10 µM, '-' = no inhibition, read-out: % Growth Inhibition
Outline: as §1

NCI/ADR-RES = details: Homo sapiens, single dose 10 µM, '-' = no inhibition, read-out: % Growth Inhibition
Outline: as §1

OVCAR-3 = details: Homo sapiens, single dose 10 µM, '-' = no inhibition, read-out: % Growth Inhibition
Outline: as §1

OVCAR-4 = details: Homo sapiens, single dose 10 µM, '-' = no inhibition, read-out: % Growth Inhibition
Outline: as §1

OVCAR-5 = details: Homo sapiens, single dose 10 µM, '-' = no inhibition, read-out: % Growth Inhibition
Outline: as §1

PC-3 = details: Homo sapiens, single dose 10 µM, '-' = no inhibition, read-out: % Growth Inhibition
Outline: as §1

RPMI-8226 = details: Homo sapiens, single dose 10 µM, '-' = no inhibition, read-out: % Growth Inhibition
Outline: as §1

RXF 393 = details: Homo sapiens, single dose 10 µM, '-' = no inhibition, read-out: % Growth Inhibition
Outline: as §1

SF-295 = details: Homo sapiens, single dose 10 µM, '-' = no inhibition, read-out: % Growth Inhibition
Outline: as §1

SF-539 = details: Homo sapiens, single dose 10 µM, '-' = no inhibition, read-out: % Growth Inhibition
Outline: as §1

SK-MEL-28 = details: Homo sapiens, single dose 10 µM, '-' = no inhibition, read-out: % Growth Inhibition
Outline: as §1

SK-OV-3 = details: Homo sapiens, single dose 10 µM, '-' = no inhibition, read-out: % Growth Inhibition
Outline: as §1

SNB-19 = details: Homo sapiens, single dose 10 µM, '-' = no inhibition, read-out: % Growth Inhibition
Outline: as §1

SNB-75 = details: Homo sapiens, single dose 10 µM, '-' = no inhibition, read-out: % Growth Inhibition
Outline: as §1

SR = details: Homo sapiens, single dose 10 µM, '-' = no inhibition, read-out: % Growth Inhibition
Outline: as §1

SW-620 = details: Homo sapiens, single dose 10 µM, '-' = no inhibition, read-out: % Growth Inhibition
Outline: as §1

T-47D = details: Homo sapiens, T47D, single dose 10 µM, '-' = no inhibition, read-out: % Growth Inhibition
Outline: as §1

TK-10 = details: Homo sapiens, single dose 10 µM, '-' = no inhibition, read-out: % Growth Inhibition
Outline: as §1

U251 = details: Homo sapiens, U-251, single dose 10 µM, '-' = no inhibition, read-out: % Growth Inhibition
Outline: as §1

UACC-257 = details: Homo sapiens, single dose 10 µM, '-' = no inhibition, read-out: % Growth Inhibition
Outline: as §1

UACC-62 = details: Homo sapiens, single dose 10 µM, '-' = no inhibition, read-out: % Growth Inhibition
Outline: as §1

UO-31 = details: Homo sapiens, single dose 10 µM, '-' = no inhibition, read-out: % Growth Inhibition
Outline: as §1

SMILES: COc1ccc(-c2cc(-c3ccc(Cl)cc3)nc(SC)n2)cc1 [Compound 9, 4-(4-Chlorophenyl)-6-(4-methoxyphenyl)-2-(methylthio)pyrimidine]
- inhibition at 10 µM (786-0): 1.88%
- inhibition at 10 µM (A498): < 0%
- inhibition at 10 µM (A549/ATCC): 7.56%
- inhibition at 10 µM (ACHN 1): 4.08%
- inhibition at 10 µM (BT-549): < 0%
- inhibition at 10 µM (CAKI-1): 28.8%
- inhibition at 10 µM (COLO 205): 0.19%
- inhibition at 10 µM (DU-145): 5.68%
- inhibition at 10 µM (EKVX): 19.4%
- inhibition at 10 µM (HCT-15): 15%
- inhibition at 10 µM (HL-60(TB)): 7.42%
- inhibition at 10 µM (HOP-62): 9.16%
- inhibition at 10 µM (HOP-92): 3.16%
- inhibition at 10 µM (HT29): 15.6%
- inhibition at 10 µM (IGROV1): 3.15%
- inhibition at 10 µM (KM12): 5.71%
- inhibition at 10 µM (LOX IMVI): 12.2%
- inhibition at 10 µM (M14): 3.51%
- inhibition at 10 µM (MALME-3M): 11.3%
- inhibition at 10 µM (MDA-MB-468): 26.2%
- inhibition at 10 µM (MDA-MB231/ATCC): 20.4%
- inhibition at 10 µM (MOLT-4): 11.7%
- inhibition at 10 µM (NCI-H23): 9.87%
- inhibition at 10 µM (NCI-H322M): 14.3%
- inhibition at 10 µM (NCI-H460): 4.25%
- inhibition at 10 µM (NCI-H522): 16%
- inhibition at 10 µM (NCI/ADR-RES): 9.84%
- inhibition at 10 µM (OVCAR-3): < 0%
- inhibition at 10 µM (OVCAR-4): 4.46%
- inhibition at 10 µM (OVCAR-5): < 0%
- inhibition at 10 µM (PC-3): 6.22%
- inhibition at 10 µM (RPMI-8226): 10.8%
- inhibition at 10 µM (RXF 393): 7.91%
- inhibition at 10 µM (SF-295): 7.84%
- inhibition at 10 µM (SF-539): 6.28%
- inhibition at 10 µM (SK-MEL-28): < 0%
- inhibition at 10 µM (SK-OV-3): < 0%
- inhibition at 10 µM (SNB-19): 4.85%
- inhibition at 10 µM (SNB-75): < 0%
- inhibition at 10 µM (SR): 12.7%
- inhibition at 10 µM (SW-620): 6.31%
- inhibition at 10 µM (T-47D): 9.97%
- inhibition at 10 µM (TK-10): < 0%
- inhibition at 10 µM (U251): 3.42%
- inhibition at 10 µM (UACC-257): 5.09%
- inhibition at 10 µM (UACC-62): 26%
- inhibition at 10 µM (UO-31): 18.1%
